# Structures can show the parent of a compound that is named as a salt.
# Target: T1, Adrenergic β2 (Homo sapiens, UniProt P07550)
# T1 construct: Adherent H292 cells were removed from tissue culture flasks; endogenous in cells; host or cells: H292 cells
# Test: Adrenergic β2 mediated cAMP production in H292 cells (AlphaScreen cAMP detection)
# Type: cell-based
# Settings: Intrinsic Activity, fraction relative to the maximum activity determined for formoterol
# Experimental: Adrenergic β2 Mediated cAMP Production
# H292 cells were grown in 225 cm2 flasks incubator at 37° C., 5% CO2 in RPMI medium containing, 10% (v/v) FBS (foetal bovine serum) and 2 mM L-glutamine.
# Adherent H292 cells were removed from tissue culture flasks by treatment with Accutase™ cell detachment solution for 15 minutes. Flasks were incubated for 15 minutes in a humidified incubator at 37° C., 5% CO2. Detached cells were re-suspended in RPMI media (containing 10% (v/v) FBS and 2 mM L-glutamine) at 0.05×10^6 cells per mL. 5000 cells in 100 μL were added to each well of a tissue-culture-treated 96-well plate and the cells incubated overnight in a humidified incubator at 37° C., 5% CO2. The culture media was removed and cells were washed twice with 100 μL assay buffer and replaced with 50 μL assay buffer (HBSS solution containing 10 mM HEPES pH 7.4 and 5 mM glucose). Cells were rested at room temperature for 20 minutes after which time 25 μL of rolipram (1.2 mM made up in assay buffer containing 2.4% (v/v) dimethylsulphoxide) was added. Cells were incubated with rolipram for 10 minutes after which time test compounds were added and the cells were incubated for 60 minutes at room temperature. The final rolipram concentration in the assay was 300 μM and final vehicle concentration was 1.6% (v/v) dimethylsulphoxide. The reaction was stopped by removing supernatants, washing once with 100 μL assay buffer and replacing with 50 μL lysis buffer. The cell monolayer was frozen at −80° C. for 30 minutes (or overnight).
# The concentration of cAMP (cyclic adenosine monophosphate) in the cell lysate was determined using AlphaScreen™ methodology. The frozen cell plate was thawed for 20 minutes on a plate shaker then 10 μL of the cell lysate was transferred to a 96-well white plate. 40 μL of mixed AlphaScreen™ detection beads pre-incubated with biotinylated cAMP, was added to each well and the plate incubated at room temperature for 10 hours in the dark. The AlphaScreen™ signal was measured using an EnVision spectrophotometer (Perkin-Elmer Inc.) with the recommended manufacturer's settings. cAMP concentrations were determined by reference to a calibration curve determined in the same experiment using standard cAMP concentrations. Concentration response curves for agonists were constructed and data was fitted to a four parameter logistic equation to determine both the pEC50 and Intrinsic Activity. Intrinsic Activity was expressed as a fraction relative to the maximum activity determined for formoterol in each experiment.
# T1 sequence (P07550 whole entry): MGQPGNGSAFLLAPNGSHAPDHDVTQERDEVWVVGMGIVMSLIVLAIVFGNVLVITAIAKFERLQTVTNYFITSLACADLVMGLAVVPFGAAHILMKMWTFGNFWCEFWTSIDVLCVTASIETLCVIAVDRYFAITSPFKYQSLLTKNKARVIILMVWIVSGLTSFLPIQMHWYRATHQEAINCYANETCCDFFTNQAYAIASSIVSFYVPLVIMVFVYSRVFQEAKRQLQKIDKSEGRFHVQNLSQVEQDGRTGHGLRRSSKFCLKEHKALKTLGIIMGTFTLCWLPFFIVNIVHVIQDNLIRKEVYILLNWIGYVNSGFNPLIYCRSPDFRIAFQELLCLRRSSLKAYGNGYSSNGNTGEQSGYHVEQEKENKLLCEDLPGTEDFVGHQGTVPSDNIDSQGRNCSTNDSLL
row,SMILES,β2 Int Act
1,"CC(C)N(CCNCCc1ccc(O)c2[nH]c(=O)sc12)C(=O)CCNCCc1ccccc1 [Example 1, N-(2-{[2-(4-Hydroxy-2-oxo-2,3-dihydro-1,3-benzothiazol-7-yl)ethyl]amino}ethyl)-N-isopropyl-N^3-(2-phenylethyl)-β-alaninamide bis-trifluoroacetic acid salt]",0.78
2,"CC(C)N(CCNCCc1ccc(O)c2[nH]c(=O)sc12)C(=O)CCNCCc1ccc(Cl)cc1 [Example 3, N^3-[2-(4-Chlorophenyl)ethyl]-N-(2-{[2-(4-hydroxy-2-oxo-2,3-dihydro-1,3-benzothiazol-7-yl)ethyl]amino}ethyl)-N-isopropyl-β-alaninamide bis-trifluoroacetic acid salt]",0.34
3,"O=C(CCNCCc1ccccc1)N(CCNCCc1ccc(O)c2[nH]c(=O)sc12)C1CCC(F)(F)CC1 [Example 4, N-(4,4-Difluorocyclohexyl)-N-(2-{[2-(4-hydroxy-2-oxo-2,3-dihydro-1,3-benzothiazol-7-yl)ethyl]amino}ethyl)-N^3-(2-phenylethyl)-β-alaninamide bis-trifluoroacetic acid salt]",0.79
4,"CC(C)(C)CN(CCNCCc1ccc(O)c2[nH]c(=O)sc12)C(=O)CCNCCc1ccccc1 [Example 6, N-(2,2-Dimethylpropyl)-N-(2-{[2-(4-hydroxy-2-oxo-2,3-dihydro-1,3-benzothiazol-7-yl)ethyl]amino}ethyl)-N^3-(2-phenylethyl)-β-alaninamide bis-trifluoroacetic acid salt]",0.89
5,"CC(C)(C)CN(CCNCCc1ccc(O)c2[nH]c(=O)sc12)C(=O)CCNCCc1cccc(Cl)c1 [Example 7, N^3-[2-(3-Chlorophenyl)ethyl]-N-(2,2-dimethylpropyl)-N-(2-{[2-(4-hydroxy-2-oxo-2,3-dihydro-1,3-benzothiazol-7-yl)ethyl]amino}ethyl)-β-alaninamide bis-trifluoroacetic acid salt]",0.68
6,"CC(C)(C)CN(CCNCCc1ccc(O)c2[nH]c(=O)sc12)C(=O)CCNCCc1ccc(Cl)cc1 [Example 8, N^3-[2-(4-Chlorophenyl)ethyl]-N-(2,2-dimethylpropyl)-N-(2-{[2-(4-hydroxy-2-oxo-2,3-dihydro-1,3-benzothiazol-7-yl)ethyl]amino}ethyl)-β-alaninamide bis-trifluoroacetic acid salt]",0.73
7,"CC(C)(C)CN(CCNCCc1ccc(O)c2[nH]c(=O)sc12)C(=O)CCNCCc1ccc(Cl)c(Cl)c1 [Example 9, N^3-[2-(3,4-Dichlorophenyl)ethyl]-N-(2,2-dimethylpropyl)-N-(2-{[2-(4-hydroxy-2-oxo-2,3-dihydro-1,3-benzothiazol-7-yl)ethyl]amino}ethyl)-β-alaninamide bis-trifluoroacetic acid salt]",0.65
8,"Cc1cccc(CCNCCC(=O)N(CCNCCc2ccc(O)c3[nH]c(=O)sc23)CC(C)(C)C)c1 [Example 10, N-(2,2-Dimethylpropyl)-N-(2-{[2-(4-hydroxy-2-oxo-2,3-dihydro-1,3-benzothiazol-7-yl)ethyl]amino}ethyl)-N^3-[2-(3-methylphenyl)ethyl]-β-alaninamide bis-trifluoroacetic acid salt]",0.69
9,"O=C(CCNCCc1cccc(Cl)c1)N(CCNCCc1ccc(O)c2[nH]c(=O)sc12)C1CCOCC1 [Example 22, N^3-[2-(3-Chlorophenyl)ethyl]-N-(2-{[2-(4-hydroxy-2-oxo-2,3-dihydro-1,3-benzothiazol-7-yl)ethyl]amino}ethyl)-N-(tetrahydro-2H-pyran-4-yl)-β-alaninamide bis-trifluoroacetic acid salt]",0.96
10,"O=C(CCNCCc1ccccc1)N(CCNCCc1ccc(O)c2[nH]c(=O)sc12)C1CCCCCC1 [Example 23, N-Cycloheptyl-N-(2-{[2-(4-hydroxy-2-oxo-2,3-dihydro-1,3-benzothiazol-7-yl)ethyl]amino}ethyl)-N^3-(2-phenylethyl)-β-alaninamide bis-trifluoroacetic acid salt]",0.85

# Continued, values first:
row,β2 Int Act,SMILES
1,0.83,"O=C(CCNCCc1ccccc1)N(CCNCCc1ccc(O)c2[nH]c(=O)sc12)C1CCCCC1 [Example 5, N-Cyclohexyl-N-(2-{[2-(4-hydroxy-2-oxo-2,3-dihydro-1,3-benzothiazol-7-yl)ethyl]amino}ethyl)-N^3-(2-phenylethyl)-β-alaninamide bis-trifluoroacetic acid salt]"
2,0.84,"C[C@H](CNCCC(=O)N(CCNCCc1ccc(O)c2[nH]c(=O)sc12)CC(C)(C)C)c1ccccc1 [Example 11, N-(2,2-Dimethylpropyl)-N-(2-{[2-(4-hydroxy-2-oxo-2,3-dihydro-1,3-benzothiazol-7-yl)ethyl]amino}ethyl)-N^3-[(2S)-2-phenylpropyl]-β-alaninamide bis-trifluoroacetic acid salt]"
3,0.87,"O=C(CCNCCc1cccc(Cl)c1)N(CCNCCc1ccc(O)c2[nH]c(=O)sc12)C1CCCCC1 [Example 12, N^3-[2-(3-Chlorophenyl)ethyl]-N-cyclohexyl-N-(2-{[2-(4-hydroxy-2-oxo-2,3-dihydro-1,3-benzothiazol-7-yl)ethyl]amino}ethyl)-β-alaninamide bis-trifluoroacetic acid salt]"
4,0.71,"O=C(CCNCCc1ccc(Cl)cc1)N(CCNCCc1ccc(O)c2[nH]c(=O)sc12)C1CCCCC1 [Example 13, N^3-[2-(4-Chlorophenyl)ethyl]-N-cyclohexyl-N-(2-{[2-(4-hydroxy-2-oxo-2,3-dihydro-1,3-benzothiazol-7-yl)ethyl]amino}ethyl)-β-alaninamide bis-trifluoroacetic acid salt]"
5,0.84,"Cc1cccc(CCNCCC(=O)N(CCNCCc2ccc(O)c3[nH]c(=O)sc23)C2CCCCC2)c1 [Example 14, N-Cyclohexyl-N-(2-{[2-(4-hydroxy-2-oxo-2,3-dihydro-1,3-benzothiazol-7-yl)ethyl]amino}ethyl)-N^3-[2-(3-methylphenyl)ethyl]-β-alaninamide bis-trifluoroacetic acid salt]"
6,0.91,"O=C(CCNCCc1ccc(F)cc1)N(CCNCCc1ccc(O)c2[nH]c(=O)sc12)C1CCCCC1 [Example 16, N-Cyclohexyl-N^3-[2-(4-fluorophenyl)ethyl]-N-(2-{[2-(4-hydroxy-2-oxo-2,3-dihydro-1,3-benzothiazol-7-yl)ethyl]amino}ethyl)-β-alaninamide bis-trifluoroacetic acid salt]"
7,0.90,"O=C(CCNCCc1ccccc1Cl)N(CCNCCc1ccc(O)c2[nH]c(=O)sc12)C1CCCCC1 [Example 17, N^3-[2-(2-Chlorophenyl)ethyl]-N-cyclohexyl-N-(2-{[2-(4-hydroxy-2-oxo-2,3-dihydro-1,3-benzothiazol-7-yl)ethyl]amino}ethyl)-β-alaninamide bis-trifluoroacetic salt]"
8,0.89,"C[C@H](CNCCC(=O)N(CCNCCc1ccc(O)c2[nH]c(=O)sc12)C1CCCCC1)c1ccccc1 [Example 18, N-Cyclohexyl-N-(2-{[2-(4-hydroxy-2-oxo-2,3-dihydro-1,3-benzothiazol-7-yl)ethyl]amino}ethyl)-N^3-[(2S)-2-phenylpropyl]-β-alaninamide bis-trifluoroacetic acid salt]"
9,0.70,"CC(C)(Cc1ccccc1)NCCC(=O)N(CCNCCc1ccc(O)c2[nH]c(=O)sc12)C1CCCCC1 [Example 19, N-Cyclohexyl-N^3-(1,1-dimethyl-2-phenylethyl)-N-(2-{[2-(4-hydroxy-2-oxo-2,3-dihydro-1,3-benzothiazol-7-yl)ethyl]amino}ethyl)-β-alaninamide bis-trifluoroacetic acid salt]"
10,0.97,"C[C@@H](CNCCC(=O)N(CCNCCc1ccc(O)c2[nH]c(=O)sc12)C1CCCCC1)c1ccccc1 [Example 20, N-Cyclohexyl-N-(2-{[2-(4-hydroxy-2-oxo-2,3-dihydro-1,3-benzothiazol-7-yl)ethyl]amino}ethyl)-N^3-[(2R)-2-phenylpropyl]-β-alaninamide bis-trifluoroacetic acid salt]"
11,0.85,"CC(C)(CNCCC(=O)N(CCNCCc1ccc(O)c2[nH]c(=O)sc12)C1CCCCC1)c1ccccc1 [Example 21, N-Cyclohexyl-N-(2-{[2-(4-hydroxy-2-oxo-2,3-dihydro-1,3-benzothiazol-7-yl)ethyl]amino}ethyl)-N^3-(2-methyl-2-phenylpropyl)-β-alaninamide bis-trifluoroacetic acid salt]"
